Drawing on publication PMC9927415, “Tyrosine Kinase Inhibitors Display Potent Activity against Cryptosporidium parvum” (Microbiology Spectrum, 2022), this text covers inhibition for ten molecules.

What all share (assay): KINOMEscan competitive binding, whole panel
In assay [1] the target is T1, panel of 203 kinases (Homo sapiens, UniProt P06239).
T1 construct: purchased DiscoverX (KINOMEscan)
As to conditions: 10 µM, n=1; kinase LCK; read-out: Percent inhibition LCK. In outline: (§1)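 Kinases were expressed as T7 bacteriophage fusions, and test compounds competed with immobilized ATP-site probe ligands for binding. Kinase remaining bound to the solid-support probe was quantified, and values are given as percentage inhibition.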

Assay [2] concerns the target T2, panel of 203 kinases (Homo sapiens, UniProt P09769).
T2 construct: purchased DiscoverX (KINOMEscan)
As to conditions: 10 µM, n=1; kinase FGR; read-out: Percent inhibition FGR. In outline:
as §1

The target in assay [3] is T3, panel of 203 kinases (Homo sapiens, UniProt P27037).
T3 construct: purchased DiscoverX (KINOMEscan)
As to conditions: 10 µM, n=1; kinase ACVR2A; read-out: Percent inhibition ACVR2A. In a few lines:
as §1

The target of assay [4] is T4, panel of 203 kinases (Homo sapiens, UniProt P49840).
T4 construct: purchased DiscoverX (KINOMEscan)
T4 sequence (P49840 whole entry): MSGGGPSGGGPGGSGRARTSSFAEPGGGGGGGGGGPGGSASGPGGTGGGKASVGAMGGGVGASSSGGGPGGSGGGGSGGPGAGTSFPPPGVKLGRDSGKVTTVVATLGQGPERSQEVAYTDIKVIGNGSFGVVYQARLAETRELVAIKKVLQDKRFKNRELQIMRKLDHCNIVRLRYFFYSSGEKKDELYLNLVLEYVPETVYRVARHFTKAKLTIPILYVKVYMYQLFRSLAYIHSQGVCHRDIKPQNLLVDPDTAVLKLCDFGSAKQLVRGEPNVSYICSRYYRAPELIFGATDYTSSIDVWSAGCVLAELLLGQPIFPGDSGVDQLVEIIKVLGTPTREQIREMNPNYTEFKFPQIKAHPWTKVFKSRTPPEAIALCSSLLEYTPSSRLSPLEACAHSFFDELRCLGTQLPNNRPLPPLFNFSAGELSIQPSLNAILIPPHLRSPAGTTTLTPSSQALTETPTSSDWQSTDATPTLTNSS
As to conditions: 10 µM, n=1; kinase GSK3A; read-out: Percent inhibition GSK3A. In a few lines: as §1

Assay [5] deals with T5, panel of 203 kinases (Homo sapiens, UniProt P51451).
T5 construct: purchased DiscoverX (KINOMEscan)
T5 sequence (P51451 whole entry): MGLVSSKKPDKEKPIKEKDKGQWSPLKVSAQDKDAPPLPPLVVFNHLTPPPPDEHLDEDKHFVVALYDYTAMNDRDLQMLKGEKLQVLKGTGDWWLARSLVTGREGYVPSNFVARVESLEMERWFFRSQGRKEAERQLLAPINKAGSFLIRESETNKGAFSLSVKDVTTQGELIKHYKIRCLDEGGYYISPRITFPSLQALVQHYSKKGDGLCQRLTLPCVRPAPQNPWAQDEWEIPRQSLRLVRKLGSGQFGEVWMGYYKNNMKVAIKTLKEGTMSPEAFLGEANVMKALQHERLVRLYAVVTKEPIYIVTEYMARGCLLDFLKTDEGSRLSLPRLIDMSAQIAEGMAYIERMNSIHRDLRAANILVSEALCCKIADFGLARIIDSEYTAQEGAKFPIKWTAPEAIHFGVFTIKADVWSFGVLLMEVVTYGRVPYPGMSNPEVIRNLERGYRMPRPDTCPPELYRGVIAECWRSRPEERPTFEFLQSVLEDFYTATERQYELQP
As to conditions: 10 µM, n=1; kinase BLK; read-out: Percent inhibition BLK. In a few lines: as §1

Assay [6] deals with T6, panel of 203 kinases (Homo sapiens, UniProt Q04771).
T6 construct: purchased DiscoverX (KINOMEscan)
T6 sequence (Q04771 21-509): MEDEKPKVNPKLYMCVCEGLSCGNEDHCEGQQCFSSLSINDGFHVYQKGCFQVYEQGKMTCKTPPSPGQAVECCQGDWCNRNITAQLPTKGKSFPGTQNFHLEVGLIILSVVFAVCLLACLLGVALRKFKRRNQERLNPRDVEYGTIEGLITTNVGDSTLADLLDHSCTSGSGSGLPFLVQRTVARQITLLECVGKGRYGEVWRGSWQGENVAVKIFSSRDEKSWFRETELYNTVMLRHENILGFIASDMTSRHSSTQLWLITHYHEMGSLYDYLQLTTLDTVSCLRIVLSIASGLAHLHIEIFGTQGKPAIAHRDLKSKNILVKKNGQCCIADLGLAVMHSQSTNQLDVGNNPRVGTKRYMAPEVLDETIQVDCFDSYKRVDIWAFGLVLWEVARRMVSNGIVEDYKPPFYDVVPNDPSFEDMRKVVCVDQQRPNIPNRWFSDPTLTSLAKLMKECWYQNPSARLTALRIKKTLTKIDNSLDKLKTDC
As to conditions: 10 µM, n=1; kinase ACVR1; read-out: Percent inhibition ACVR1. In outline:
as §1

In assay [7] the target is T7, panel of 203 kinases (Homo sapiens, UniProt Q5VT25).
T7 construct: purchased DiscoverX (KINOMEscan)
As to conditions: 10 µM, n=1; kinase MRCKA; read-out: Percent inhibition MRCKA. In outline: as §1

The target in assay [8] is T8, panel of 203 kinases (Homo sapiens, UniProt Q8TD19).
T8 construct: purchased DiscoverX (KINOMEscan)
T8 sequence (Q8TD19 1-979): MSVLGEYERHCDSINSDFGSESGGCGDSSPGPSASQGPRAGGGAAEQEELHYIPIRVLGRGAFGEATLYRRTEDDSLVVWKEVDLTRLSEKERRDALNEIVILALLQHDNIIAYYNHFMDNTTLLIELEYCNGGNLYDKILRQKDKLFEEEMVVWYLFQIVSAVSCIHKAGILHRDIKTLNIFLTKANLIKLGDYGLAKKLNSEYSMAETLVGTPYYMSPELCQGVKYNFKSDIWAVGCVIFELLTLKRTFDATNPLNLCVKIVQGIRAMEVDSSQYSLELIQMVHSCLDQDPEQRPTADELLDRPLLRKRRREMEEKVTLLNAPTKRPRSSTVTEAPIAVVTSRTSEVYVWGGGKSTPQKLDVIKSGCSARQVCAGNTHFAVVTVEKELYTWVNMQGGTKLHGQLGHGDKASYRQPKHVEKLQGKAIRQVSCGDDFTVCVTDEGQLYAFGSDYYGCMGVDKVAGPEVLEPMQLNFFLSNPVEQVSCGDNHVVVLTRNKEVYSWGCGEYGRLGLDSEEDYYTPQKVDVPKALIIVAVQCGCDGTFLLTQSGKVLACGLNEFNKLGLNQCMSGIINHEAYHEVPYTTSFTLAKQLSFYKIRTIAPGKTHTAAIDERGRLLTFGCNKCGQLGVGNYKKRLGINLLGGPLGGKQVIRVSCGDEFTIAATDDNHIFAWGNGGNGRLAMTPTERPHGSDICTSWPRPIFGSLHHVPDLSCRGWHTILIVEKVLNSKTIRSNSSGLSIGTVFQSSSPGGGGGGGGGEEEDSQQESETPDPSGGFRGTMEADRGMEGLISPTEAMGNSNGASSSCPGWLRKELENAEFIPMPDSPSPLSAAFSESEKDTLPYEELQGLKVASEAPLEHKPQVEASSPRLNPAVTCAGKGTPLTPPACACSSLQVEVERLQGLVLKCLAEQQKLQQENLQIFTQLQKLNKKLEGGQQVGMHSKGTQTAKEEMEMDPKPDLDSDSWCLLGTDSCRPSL
As to conditions: 10 µM, n=1; kinase NEK9; read-out: Percent inhibition NEK9. In a few lines:
as §1

The target of assay [9] is T9, panel of 203 kinases (Homo sapiens, UniProt Q9UM73).
T9 construct: purchased DiscoverX (KINOMEscan)
T9 sequence (Q9UM73 19-1620): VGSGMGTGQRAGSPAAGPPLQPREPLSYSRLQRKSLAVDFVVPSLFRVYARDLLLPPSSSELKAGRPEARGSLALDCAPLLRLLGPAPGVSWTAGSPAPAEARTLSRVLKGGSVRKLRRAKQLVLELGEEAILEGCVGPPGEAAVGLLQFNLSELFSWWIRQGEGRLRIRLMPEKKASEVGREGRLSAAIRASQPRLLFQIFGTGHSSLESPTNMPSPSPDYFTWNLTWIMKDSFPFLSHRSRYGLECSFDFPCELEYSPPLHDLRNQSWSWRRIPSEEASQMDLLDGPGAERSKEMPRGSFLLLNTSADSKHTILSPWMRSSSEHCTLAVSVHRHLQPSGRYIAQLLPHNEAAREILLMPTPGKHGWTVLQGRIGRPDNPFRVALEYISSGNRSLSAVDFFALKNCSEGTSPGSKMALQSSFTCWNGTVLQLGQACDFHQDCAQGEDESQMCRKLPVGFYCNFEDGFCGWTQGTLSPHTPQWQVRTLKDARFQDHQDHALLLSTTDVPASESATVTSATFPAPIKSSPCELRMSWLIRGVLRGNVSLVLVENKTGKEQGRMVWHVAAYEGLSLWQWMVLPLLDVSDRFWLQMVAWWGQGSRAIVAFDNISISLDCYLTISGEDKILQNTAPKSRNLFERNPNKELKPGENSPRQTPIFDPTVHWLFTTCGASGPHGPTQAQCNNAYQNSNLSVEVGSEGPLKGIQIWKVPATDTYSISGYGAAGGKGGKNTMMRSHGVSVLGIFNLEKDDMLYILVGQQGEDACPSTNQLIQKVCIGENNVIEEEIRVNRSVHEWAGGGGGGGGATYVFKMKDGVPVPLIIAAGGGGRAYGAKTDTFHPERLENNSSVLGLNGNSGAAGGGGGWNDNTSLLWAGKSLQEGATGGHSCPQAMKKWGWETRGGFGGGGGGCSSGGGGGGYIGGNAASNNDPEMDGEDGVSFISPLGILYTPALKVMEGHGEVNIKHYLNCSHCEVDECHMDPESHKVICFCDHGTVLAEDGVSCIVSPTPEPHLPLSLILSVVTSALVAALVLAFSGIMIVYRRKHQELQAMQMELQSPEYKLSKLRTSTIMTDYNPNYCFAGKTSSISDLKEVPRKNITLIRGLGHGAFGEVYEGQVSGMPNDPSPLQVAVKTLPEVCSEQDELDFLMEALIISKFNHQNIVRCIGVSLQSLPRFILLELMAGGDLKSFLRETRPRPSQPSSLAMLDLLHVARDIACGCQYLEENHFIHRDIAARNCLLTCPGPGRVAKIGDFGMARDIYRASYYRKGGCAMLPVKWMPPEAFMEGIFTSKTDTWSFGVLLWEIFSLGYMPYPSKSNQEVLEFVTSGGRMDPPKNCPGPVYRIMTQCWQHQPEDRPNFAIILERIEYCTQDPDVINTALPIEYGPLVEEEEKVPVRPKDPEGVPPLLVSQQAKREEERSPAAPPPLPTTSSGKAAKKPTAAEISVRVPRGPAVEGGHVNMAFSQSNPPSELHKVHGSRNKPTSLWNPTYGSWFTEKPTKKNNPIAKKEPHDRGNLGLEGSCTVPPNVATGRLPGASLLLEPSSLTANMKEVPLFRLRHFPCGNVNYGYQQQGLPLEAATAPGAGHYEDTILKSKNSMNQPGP
Conditions: 10 µM, n=1; kinase ALK; read-out: Percent inhibition ALK. In a few lines: as §1

Assay [10] concerns the target T10, panel of 203 kinases (Homo sapiens, UniProt Q9Y6R4).
T10 construct: purchased DiscoverX (KINOMEscan)
As to conditions: 10 µM, n=1; kinase MAP3K4; read-out: Percent inhibition MAP3K4. In a few lines:
as §1

T2 sequence (P09769 whole entry): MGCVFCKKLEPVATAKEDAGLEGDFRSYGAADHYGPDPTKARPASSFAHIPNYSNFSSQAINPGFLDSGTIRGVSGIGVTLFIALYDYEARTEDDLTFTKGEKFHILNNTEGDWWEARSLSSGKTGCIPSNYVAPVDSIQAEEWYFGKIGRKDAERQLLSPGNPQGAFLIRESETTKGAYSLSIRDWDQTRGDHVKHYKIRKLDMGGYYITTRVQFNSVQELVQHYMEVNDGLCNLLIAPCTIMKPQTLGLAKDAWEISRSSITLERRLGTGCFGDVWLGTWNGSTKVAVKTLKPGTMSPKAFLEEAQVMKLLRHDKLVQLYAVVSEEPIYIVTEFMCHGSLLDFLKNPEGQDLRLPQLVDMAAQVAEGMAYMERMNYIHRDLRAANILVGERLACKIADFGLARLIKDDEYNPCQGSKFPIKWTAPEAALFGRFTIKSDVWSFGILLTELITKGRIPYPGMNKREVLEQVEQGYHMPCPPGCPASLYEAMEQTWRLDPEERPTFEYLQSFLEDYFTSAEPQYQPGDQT
T10 sequence (Q9Y6R4 whole entry): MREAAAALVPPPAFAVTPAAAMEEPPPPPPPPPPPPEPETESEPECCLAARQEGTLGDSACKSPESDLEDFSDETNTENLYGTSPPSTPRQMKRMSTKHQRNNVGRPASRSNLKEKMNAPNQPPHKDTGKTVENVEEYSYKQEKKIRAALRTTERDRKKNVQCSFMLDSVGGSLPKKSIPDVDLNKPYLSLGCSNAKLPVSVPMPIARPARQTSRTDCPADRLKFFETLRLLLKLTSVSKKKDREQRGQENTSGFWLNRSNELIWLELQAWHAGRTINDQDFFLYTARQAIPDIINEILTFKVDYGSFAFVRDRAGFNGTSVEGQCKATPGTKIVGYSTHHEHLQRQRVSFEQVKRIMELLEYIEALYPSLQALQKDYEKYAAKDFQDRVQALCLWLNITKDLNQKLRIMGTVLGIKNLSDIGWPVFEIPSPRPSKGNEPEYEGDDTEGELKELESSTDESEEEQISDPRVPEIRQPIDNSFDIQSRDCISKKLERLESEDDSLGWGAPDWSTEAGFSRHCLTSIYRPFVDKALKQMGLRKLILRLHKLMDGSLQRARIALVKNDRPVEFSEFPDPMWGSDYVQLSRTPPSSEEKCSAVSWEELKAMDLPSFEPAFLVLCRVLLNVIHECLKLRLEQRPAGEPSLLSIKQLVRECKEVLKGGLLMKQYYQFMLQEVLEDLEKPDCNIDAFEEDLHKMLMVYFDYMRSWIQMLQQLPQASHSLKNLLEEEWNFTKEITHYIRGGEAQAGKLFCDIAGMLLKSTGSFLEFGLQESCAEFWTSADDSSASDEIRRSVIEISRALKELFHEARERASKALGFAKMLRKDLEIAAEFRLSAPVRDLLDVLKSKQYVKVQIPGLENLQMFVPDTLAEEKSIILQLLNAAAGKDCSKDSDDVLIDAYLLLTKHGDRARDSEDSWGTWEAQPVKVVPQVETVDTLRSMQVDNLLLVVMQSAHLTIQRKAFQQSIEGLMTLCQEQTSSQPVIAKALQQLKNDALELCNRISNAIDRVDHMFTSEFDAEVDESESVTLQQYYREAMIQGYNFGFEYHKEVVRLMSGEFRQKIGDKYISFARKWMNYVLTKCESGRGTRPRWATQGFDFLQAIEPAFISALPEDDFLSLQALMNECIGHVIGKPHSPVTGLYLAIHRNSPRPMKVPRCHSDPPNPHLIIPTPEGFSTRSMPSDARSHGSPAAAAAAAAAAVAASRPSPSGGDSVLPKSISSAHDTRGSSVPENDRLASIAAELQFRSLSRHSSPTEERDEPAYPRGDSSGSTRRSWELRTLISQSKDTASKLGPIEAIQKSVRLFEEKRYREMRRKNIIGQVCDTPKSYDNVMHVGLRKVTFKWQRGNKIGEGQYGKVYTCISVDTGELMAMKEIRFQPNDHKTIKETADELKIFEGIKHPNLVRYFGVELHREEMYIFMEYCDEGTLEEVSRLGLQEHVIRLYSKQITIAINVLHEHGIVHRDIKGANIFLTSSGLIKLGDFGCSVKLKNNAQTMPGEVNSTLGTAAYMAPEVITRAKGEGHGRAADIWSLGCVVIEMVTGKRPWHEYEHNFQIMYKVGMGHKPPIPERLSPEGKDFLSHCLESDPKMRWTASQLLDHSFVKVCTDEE

On to `Cc1ccc(O)cc1Nc1ccnc(Nc2cccc(C(N)=O)c2)n1` [Compound 3], for which the inhibition at 10 µM in assay [1] stood at 99.6%; in [2], 100%; in assay [3] it was 99.3%; in assay [4] it was 69.7%; in assay [5] it was 99.6%; in assay [6], 99.7%. In addition, the inhibition at 10 µM in assay [7], in assay [8], in assay [9] and in assay [10] was 0% each time.

Regarding `Clc1ccc(Nc2ncc(-c3ccccc3)s2)cc1` [Compound 10], the inhibition at 10 µM in [1], in assay [2], in assay [3], in [4], in [5] and in assay [6] was 0% throughout. Moreover, the inhibition at 10 µM in assay [7], in assay [8], in assay [9] and in assay [10] was 0% throughout.

Regarding `c1ccc(COc2cccc(-c3ccnc4[nH]ccc34)c2)cc1` [Compound 9], the inhibition at 10 µM in assay [1], in [2], in [3], in [4], in assay [5] and in [6] was 0% throughout. In addition, the inhibition at 10 µM in [7], in [8], in assay [9] and in [10] was 0% throughout.

For the molecule `Fc1cccc(COc2ccc(Nc3ncnc4c3CN(CCN3CCOCC3)CC4)cc2Cl)c1` [Compound 6], the inhibition at 10 µM in assay [1], in assay [2], in assay [3], in [4], in assay [5] and in assay [6] was 0% each time. In addition, the inhibition at 10 µM in [7], in [8], in [9] and in [10] was 0% each time.

Consider `C[C@@H](Oc1cc(-c2cnc3ccccn23)sc1C(N)=O)c1ccccc1Cl` [Compound 8], for which the inhibition at 10 µM in assay [1], in [2], in assay [3], in [4], in assay [5] and in assay [6] was 0% throughout. In addition, the inhibition at 10 µM in assay [7] worked out at 0%; in [8] it was 94.7%; in assay [9] it was 0%; in assay [10], 0%.

On to `CN1CCN(c2ccc(Nc3nccc(-c4cnn5ncccc45)n3)cc2C#N)CC1` [Compound 1], for which the inhibition at 10 µM in assay [1] came to 97.6%; in [2], 89.5%; in assay [3], 0%; in [4], 100%; in assay [5] it was 84.8%; in assay [6], 98.8%. Moreover, the inhibition at 10 µM in assay [7] was 0%; in assay [8], 99.2%; in [9], 99.1%; in assay [10] it was 91%.

`Cc1ccc(O)cc1N(C)c1ccnc(Nc2cccc(S(N)(=O)=O)c2)n1` [Compound 4]: the inhibition at 10 µM in assay [1] amounted to 99.8%; in [2], 100%; in assay [3] it was 99.7%; in assay [4], 91.3%; in [5], 99.4%; in [6], 99.9%. For the same molecule, the inhibition at 10 µM in assay [7] is 87%; in [8] it was 0%; in assay [9] it was 0%; in assay [10], 0%.

On to `COc1ccc(Nc2nccc(-c3cnn4ncccc34)n2)cc1` [Compound 2], for which the inhibition at 10 µM in assay [1] came out at 0%; in assay [2] it was 67.4%; in assay [3] it was 0%; in assay [4], 100%; in assay [5], 63.8%; in assay [6] it was 92.1%. Moreover, the inhibition at 10 µM in [7] is 0%; in assay [8], 100%; in [9], 94.8%; in assay [10], 0%.

In the case of `Nc1ncc2c(-c3ccncc3)c[nH]c2n1` [Compound 11], the inhibition at 10 µM in [1] stood at 0%; in assay [2] it was 76.8%; in assay [3], 0%; in assay [4], 0%; in [5] it was 0%; in [6], 66.2%. Moreover, the inhibition at 10 µM in assay [7], in assay [8], in assay [9] and in assay [10] was 0% each time.

Consider `COc1cc(Nc2nccc(-c3sc(N)nc3-c3cccc(NC(=O)c4c(F)cccc4F)c3)n2)cc(OC)c1OC` [Compound 7], for which the inhibition at 10 µM in [1] amounted to 99.5%; in [2], 100%; in assay [3], 0%; in [4], 0%; in [5], 99%; in [6], 0%. The inhibition at 10 µM was determined as 100% in assay [7], 88.9% in assay [8], 0% in [9] and 99.6% in assay [10].

Usually inhibition stands for how much of the control response was suppressed.
